Where a name gives a salt, the structure may show the parent alone. Read-outs that look alike come from different tables or passages of the source.
How the values were obtained:
Format in all cases: cell-based
[1] = test system: human cervical epithelioid carcinoma (HeLa); assay: In vitro anticancer assay (MTT), HeLa; settings: HeLa cells, 48 hrs, mean ± spread, read-out: Anti-proliferative evaluation IC50, HeLa
Experimental: (§1) The resultant tetrazolium salt was then dissolved by the addition of dimethyl sulfoxide. Color was measured spectrophotometrically in a microtiter plate reader at 570 nm and used as a relative measure of viable cell number. The number of viable cells after treatment was compared to solvent and untreated control cells and used to determine the percent of control growth as (Abtreated/Abcontrol)×100, where Ab represents the mean absorbance (n=3). […] D. Heo et al. […] (+)-camptothecin (CPT) and doxorubicin hydrochloride (Dox) were used for comparison with the compounds according to this invention.

[2] = test system: oral squamous cell carcinoma (SAS); assay: In vitro anticancer assay (MTT), SAS; settings: SAS cells, 48 hrs, mean ± spread, read-out: Anti-proliferative evaluation IC50, SAS
Experimental: as §1

[3] = test system: hepatocellular carcinoma (SKHep1); assay: In vitro anticancer assay (MTT), SKHep1; settings: 48 hrs, mean ± spread, read-out: Anti-proliferative evaluation IC50, SKHep1
Experimental: as §1

[4] = test system: human stomach adenocarcinoma (AGS); assay: In vitro anticancer assay (MTT), AGS; settings: AGS cells, 48 hrs, mean ± spread, read-out: Anti-proliferative evaluation IC50, AGS
Experimental: as §1

[5] = test system: human renal clear cell carcinoma; assay: In vitro anticancer assay (MTT), RCC 768-O; settings: RCC 768-O cells, 48 hrs, mean ± spread, read-out: Anti-proliferative evaluation IC50, RCC 768-O
Experimental: as §1

[6] = test system: esophageal carcinoma (CE81T); assay: In vitro anticancer assay (MTT), CE81T; settings: CE81T cells, 48 hrs, mean ± spread, read-out: Anti-proliferative evaluation IC50, CE81T
Experimental: as §1

[7] = Homo sapiens, SK-HEP1, SKHep1 cells

| Structure (SMILES) | IC50 [1] [µM] | IC50 [2] [µM] | IC50 ([3]; SKHep1 cells) [µM] | IC50 [4] [µM] | IC50 [5] [µM] | IC50 [6] [µM] | IC50 ([1]; Homo sapiens) [µM] | IC50 [3, 7] [µM] | IC50 ([4]; Homo sapiens) [µM] | IC50 ([5]; Homo sapiens) [µM] |
| --- | --- | --- | --- | --- | --- | --- | --- | --- | --- | --- |
| COc1ccc2c(c1)C(=O)c1c-2c(N2CCN(C(=O)CCNCCCN(C)C)CC2)nc2ccccc12 [Compound 5ccc] | 5.4 ± 1.3 | 13.5 ± 2.2 | 8.6 ± 0.7 | 2.8 ± 1.3 | 5.9 ± 0.9 | 9.4 ± 0.6 | – | – | – | – |
| COc1ccc2c(c1)C(=NOCCN1CCCC1)c1c-2c(O)nc2ccccc12 [Compound 6bb, 6-hydroxy-9-methoxy-11H-indeno[1,2-c]quinolin-11-one O-2-(pyrrolidin-1-yl)ethyl oxime] | – | 0.8 ± 0.1 | – | – | – | – | 0.2 ± 0.02 | 1.2 ± 0.3 | 10.4 ± 3 | 3.7 ± 0.8 |
| COc1ccc2c(c1)C(=O)c1c-2c(N2CCN(C(=O)CNCCN)CC2)nc2ccccc12 [Compound 5mm] | 8.7 ± 1.8 | > 30 | 14.9 ± 3.6 | 11.2 ± 1.5 | 10.5 ± 1 | > 30 | – | – | – | – |
| COc1ccc2c(c1)C(=NO)c1c-2c(N2CCN(C(=O)CCNCCN(C)C)CC2)nc2ccccc12 [Compound 6n, 3-[2-(Dimethylamino)ethylamino]-1-{4-[11-(hydroxyimino)-9-methoxy-11H-indeno[1,2-c]quinolin-6-yl]piperazin-1-yl}propan-1-one] | – | 7.3 ± 0.4 | – | – | – | > 30 | > 30 | > 30 | 7.4 ± 1.2 | 5.6 ± 1.6 |
| CON=C1c2ccccc2-c2c(N3CCNCC3)nc3ccccc3c21 [Compound 6j, 6-(Piperazin-1-yl)-11H-indeno[1,2-c]quinolin-11-one O-methyl oxime] | – | 7.7 ± 1 | – | – | – | 0.4 | 6.2 ± 0.6 | 6.1 ± 0.8 | 8.1 ± 2.1 | 7.7 ± 0.5 |
| COc1ccc2c(c1)C(=O)c1c-2c(N2CCN(C(=O)CN3CCOCC3)CC2)nc2ccccc12 [Compound 5uu] | 18 ± 8.1 | > 30 | 19.9 ± 10 | 21.4 ± 0.2 | > 30 | > 30 | – | – | – | – |
| COc1ccc2c(c1)C(=NOCc1ccccc1)c1c-2c(N2CCNCC2)nc2ccccc12 [Compound 6x] | 6.1 ± 0.3 | 7.6 ± 0.6 | 4.2 ± 1.8 | 6.1 ± 1.4 | 7 ± 0.4 | 3.4 ± 2.3 | – | – | – | – |
| COc1ccc2c(c1)C(=O)c1c-2c(N2CCN(CC3CO3)CC2)nc2ccccc12 (stereo not shown) [Compound 5kkk, 9-methoxy-6-[4-(oxiran-2-ylmethyl)piperazin-1-yl]-11H-indeno[1,2-c]quinolin-11-one] | – | > 30 | – | – | – | 0.6 | 10.7 ± 1.2 | > 30 | 21.4 ± 10.1 | 19.1 ± 3.1 |
| CON=C1c2cc(F)ccc2-c2c(N3CCNCC3)nc3ccccc3c21 [Compound 6l] | 4.9 ± 0.6 | 7.9 ± 0.3 | 5.9 ± 1.1 | 7.6 ± 3.4 | 7 ± 0.7 | 3.4 ± 0.3 | – | – | – | – |
| CNCC(O)CN1CCN(c2nc3ccccc3c3c2-c2ccc(OC)cc2C3=O)CC1 (stereo not shown) [Compound 5lll, 6-{4-[2-Hydroxy-3-(methylamino)propyl]piperazin-1-yl}-9-methoxy-11H-indeno[1,2-c]quinolin-11-one] | – | 7.4 ± 0.7 | – | – | – | 0.9 ± 0.3 | 4.6 ± 1 | 3.4 ± 1.2 | 9.6 ± 3.8 | 6.4 ± 0.2 |
| COc1ccc2c(c1)C(=O)c1c-2c(N2CCNCC2)nc2ccc(F)cc12 [Compound 5ee, 2-Fluoro-9-methoxy-6-(piperazin-1-yl)-11H-indeno[1,2-c]quinolin-11-one] | – | 6.9 ± 0.5 | – | – | – | 0.9 ± 0.6 | > 30 | 16.5 ± 5.1 | 6.5 ± 0.9 | 4.7 ± 3 |
| CON=C1c2cc(OC)ccc2-c2c(N3CCN(C(=O)CCN(C)C)CC3)nc3ccccc3c21 [Compound 6m] | 3.6 ± 1.6 | 7 ± 0.5 | 5 ± 0.8 | 7.5 ± 1.1 | 5.3 ± 1.8 | 3 ± 2 | – | – | – | – |
| COc1ccc2c(c1)C(=O)c1c-2c(N2CCN(C(=O)CCNCCCN(C)CCCN)CC2)nc2ccccc12 [Compound 5fff] | > 30 | > 30 | 23.5 ± 1.4 | 10.8 ± 1.9 | > 30 | > 30 | – | – | – | – |
| COc1ccc2c(c1)C(=NOCCN(C)C)c1c-2c(N2CCNCC2)nc2ccccc12 [Compound 6r, 9-Methoxy-6-(piperazin-1-yl)-11H-indeno[1,2-c]quinolin-11-one O-2-(dimethylamino)ethyl oxime] | – | 2.4 ± 1.2 | – | – | – | > 30 | 0.5 ± 0.2 | 0.7 ± 0.2 | 6.8 ± 2 | 2 ± 1.9 |
| COc1ccc2c(c1)C(=O)c1c-2c(N2CCN(C(=O)CCNCCNCCO)CC2)nc2ccccc12 [Compound 5eee] | 10.6 ± 1.2 | > 30 | 11.2 ± 0.9 | 16 ± 0.9 | 15 ± 3.5 | > 30 | – | – | – | – |
| COc1ccc2c(c1)C(=O)c1c-2c(N2CCN(C(=O)CNCCN3CCNCC3)CC2)nc2ccccc12 [Compound 5vv] | 5.4 ± 2 | 8.9 ± 0.1 | 6.4 ± 0.6 | 7.3 ± 0.1 | 5.6 ± 0.9 | 8.4 ± 2 | – | – | – | – |
| CON=C1c2cc(OC)ccc2-c2c(N3CCNCC3)nc3ccccc3c21 [Compound 6q] | 10.6 ± 4.4 | 10.3 ± 0.5 | 9.3 ± 2.9 | 5.2 ± 0.5 | 8.3 ± 1.3 | 7.2 ± 3.1 | – | – | – | – |
| COc1ccc2c(c1)C(=O)c1c-2c(N2CCN(C(=O)CNCCCN(C)CCCN)CC2)nc2ccccc12 [Compound 5ss] | > 30 | > 30 | 21.5 ± 7 | 12.5 ± 5.2 | 10.8 ± 1.1 | > 30 | – | – | – | – |
| COc1ccc2c(c1)C(=O)c1c-2c(N2CCC(N)C2)nc2ccccc12 (stereo not shown) [Compound 5v] | > 30 | > 30 | 26.9 ± 19.5 | > 30 | > 30 | > 30 | – | – | – | – |
| COc1cccc2c1C(=O)c1c(O)c3c(c(O)c1C2=O)C[C@@](O)(C(=O)CO)C[C@@H]3O[C@H]1C[C@H](N)[C@H](O)[C@H](C)O1 [Dox, doxorubicin hydrochloride, reference compound] | – | 5.7 ± 0.3 | – | – | – | 0.3 ± 0.1 | 0.4 ± 0.1 | < 0.1 | > 30 | 2.2 ± 0.3 |
| COc1ccc2c(c1)C(=NO)c1c-2c(OC)nc2ccccc12 [Compound 6e] | 8.4 ± 1.2 | 9.5 ± 2.1 | 8.7 ± 2.1 | 6.8 ± 1.4 | > 30 | > 30 | – | – | – | – |
| O=C1c2ccccc2-c2c(NCCNCCO)nc3ccccc3c21 [Compound 5c, 6-[2-(2-Hydroxyethylamino)ethylamino]-11H-indeno[1,2-c]quinolin-11-one] | – | 7.3 ± 0.6 | – | – | – | > 30 | 1 ± 0.3 | 4.3 ± 1.5 | 7.9 ± 1.7 | 8.3 ± 0.6 |
| COc1ccc2c(c1)C(=O)c1c-2c(N2CCN(C(=O)CCO)CC2)nc2ccccc12 [Compound 5ww] | 10.6 ± 1.6 | > 30 | 21.9 ± 6.4 | 9.5 ± 0.3 | 18.5 ± 2.1 | > 30 | – | – | – | – |
| COc1ccc2c(c1)C(=NOCCN1CCCC1)c1c-2cnc2ccccc12 [Compound 6aa, 9-methoxy-11H-indeno[1,2-c]quinolin-11-one O-2-(pyrrolidin-1-yl)ethyl oxime] | – | 1.2 ± 0.2 | – | – | – | – | 0.4 ± 0.02 | 1.5 ± 0.3 | > 30 | 5.7 ± 1 |

Source: US7829567B2, “Imino-indeno[1,2-c] quinoline derivatives, their preparation processes, and pharmaceutical compositions comprising the same” (Kaohsiung Medical University, priority 2007, dated 2010)
